Experiments:
CK2 and α-casein = molecular target: T1, CK2 and α-casein (Homo sapiens, UniProt P68400); assay: Kinase-catalyzed photocrosslinking with full-length α-casein, SDS-PAGE, coomassie and CK2 western blot; type: biochemical; conditions: α-casein 100 μM, co-substrate 1.3 mM, 365 nm UV; CK2 immunoblot
T1 construct: purchased New England Biolabs (NEB)
Description: Having established phosphorylation-dependent crosslinking between kinase and peptide substrate, crosslinking with a full-length protein substrate was tested. The α-casein protein has been widely used as a model CK2 substrate in phosphoprotein analysis. Crosslinking was carried out by incubating a mixture of CK2 and α-casein with ATP-ArN3 in the presence of UV light. The products were separated by SDS-PAGE and analyzed by coomassie staining (FIG. 3a) and western blot analysis (FIG. 3b). […] Because phosphate transfer is required, a powerful feature of ATP-ArN3-mediated crosslinking is that a kinase substrate is necessarily present in the crosslinked product. Coupled with mass spectrometric analysis, phosphorylation-dependent kinase-substrate crosslinking can determine the sites of phosphorylation in addition to the effector kinase. Importantly, the crosslinking approach is appropriate for studies with cell lysates or homogenized tissue samples since natural kinase and substrate are utilized. […] The reaction products were separated by SDS-PAGE and visualized by coomassie staining, silver staining, in-gel fluorescence imaging, or western blotting with a CK2 antibody (Millipore) after transfer onto a PVDF membrane (Immobilon-PSQ, Millipore). […] The reaction mixtures were incubated for 2 hours at 30° C. before quantitative MALDI-TOF MS analysis (Bruker Daltonics), as previously described. […]

CK2 kinase = molecular target: T2, CK2 kinase (Homo sapiens, UniProt P68400); assay: Kinase-catalyzed photocrosslinking with peptide substrate Rho-14, in-gel fluorescence; type: biochemical; conditions: Rho-14 200 μM, co-substrate 1.3 mM, 365 nm UV 2 hours at 30° C.
T2 construct: purchased New England Biolabs (NEB)
T2 sequence (P68400 whole entry): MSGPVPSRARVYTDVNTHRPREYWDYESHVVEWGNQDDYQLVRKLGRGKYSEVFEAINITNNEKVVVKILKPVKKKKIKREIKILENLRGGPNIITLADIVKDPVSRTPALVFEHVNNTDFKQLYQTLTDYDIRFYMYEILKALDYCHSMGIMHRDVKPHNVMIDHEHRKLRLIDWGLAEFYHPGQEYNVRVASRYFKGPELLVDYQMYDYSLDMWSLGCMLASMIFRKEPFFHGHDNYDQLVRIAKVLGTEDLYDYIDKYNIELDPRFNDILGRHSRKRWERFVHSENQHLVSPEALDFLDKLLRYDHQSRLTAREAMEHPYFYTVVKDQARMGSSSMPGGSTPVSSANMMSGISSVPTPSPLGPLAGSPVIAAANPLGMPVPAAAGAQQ
T2 sequence (P67870 whole entry partner): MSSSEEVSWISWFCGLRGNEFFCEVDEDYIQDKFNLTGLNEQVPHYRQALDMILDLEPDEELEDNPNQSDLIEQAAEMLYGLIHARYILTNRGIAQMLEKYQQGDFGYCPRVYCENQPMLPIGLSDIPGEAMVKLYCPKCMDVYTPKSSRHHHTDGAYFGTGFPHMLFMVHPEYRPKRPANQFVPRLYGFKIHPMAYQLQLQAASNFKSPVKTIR
Description: Crosslinking was tested by incubating CK2 kinase and ATP-ArN3 with rhodamine-labeled CK2 peptide substrate 14 (Rho-[sequence], Rho-14). Simultaneously, the reaction mixture was irradiated with 365 nm light to afford a covalent crosslink (FIG. 1c). If kinase-substrate crosslinking occurred, the kinase was expected to become fluorescently labeled, which would be visualized by gel electrophoresis. […] As a final critical control, the crosslinked product was treated with acid to cleave the phosphoramidate bond bridging the peptide and kinase (FIG. 1c).
Photocrosslinking was initiated by irradiating with a handheld UV lamp at 365 nm for 2 hours at 30° C. The phosphoramidate bond in the crosslinked products was cleaved by adding trifluoroacetic acid (TFA) to a final concentration of 50% and incubating at 16° C. for 3 hours. The reaction products were separated by SDS-PAGE and visualized by coomassie staining, silver staining, in-gel fluorescence imaging, or western blotting with a CK2 antibody (Millipore) after transfer onto a PVDF membrane (Immobilon-PSQ, Millipore).
For the photocrosslinking experiments, CK2 (50 units/μL, 0.7 μM) was incubated with either Rho-14 (200 μM,) or full length α-casein (100 μM, Sigma), while Abl (20 units/μL, 44.4 nM) was incubated with ROX-13 (200 μM). All reactions also contained ATP or ATP-ArN3 (1.3 mM) and the manufacturers' kinase buffer.

T1 sequence (P68400 whole entry): as the sequence (P68400 whole entry) above
T1 sequence (P67870 whole entry partner): as the sequence (P67870 whole entry partner) above

CK2-α-casein crosslinked complex (68 kDa) formation (CK2 and α-casein): crosslinked complex was absent | fluorophore labeling of CK2 (kinase-substrate crosslinking) (CK2 kinase): no fluorescence labeling was observed
Compound: Nc1ncnc2c1ncn2[C@@H]1O[C@H](COP(=O)(O)OP(=O)(O)OP(=O)(O)O)[C@@H](O)[C@H]1O [ATP, Adenosine 5′-triphosphate]
